Test results from PubChem BioAssay (NCI).
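Method: 48-hour compound exposure of cells in 96-well plates, five concentrations, linear interpolation of endpoints. TGI: concentration producing complete growth inhibition.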

Each compound was assayed on UACC-257 melanoma (assay: inhibition of tumour cell growth, NCI panel, 48 h).

`NC(=S)N/N=C1\CCCCc2ccccc21` and `CC(C)(C)OC(=O)NCCc1ccc(N)cc1` cannot be ordered by TGI: greater than 10 µM for the first, greater than 100 µM for the second.

`CC(C)OC(=O)C1=C2c3ncccc3C(=O)N2[C@@H](Cl)[C@H](Cl)[C@H]1Cl` and `O=[N+]([O-])c1ccc2c(c1)Sc1ccccc1N2` cannot be ordered by TGI: greater than 100 µM for the first, greater than 100 µM for the second.

What follows are compounds tested on SNB-19 CNS (assay: inhibition of tumour cell growth, NCI panel, 48 h).

`CCOC(=O)C1=C(Cl)c2cccnc2C1=O` and `CC(C)OC(=O)C1=C2c3ncccc3C(=O)N2[C@@H](Cl)[C@H](Cl)[C@H]1Cl` cannot be ordered by TGI: greater than 100 µM for the first, greater than 100 µM for the second.

`NC(=S)N/N=C1\CCCCc2ccccc21` and `CC(C)(C)OC(=O)NCCc1ccc(N)cc1` cannot be ordered by TGI: greater than 10 µM for the first, greater than 100 µM for the second.

Work on `O=[N+]([O-])c1ccc2c(c1)Sc1ccccc1N2` yielded a TGI greater than 100 µM.

These compounds were tested on OVCAR-8 ovarian (assay: inhibition of tumour cell growth, NCI panel, 48 h).

`NC(=S)N/N=C1\CCCCc2ccccc21` and `CC(C)(C)OC(=O)NCCc1ccc(N)cc1` cannot be ordered by TGI: greater than 10 µM for the first, greater than 100 µM for the second.

`CC(C)OC(=O)C1=C2c3ncccc3C(=O)N2[C@@H](Cl)[C@H](Cl)[C@H]1Cl` and `O=[N+]([O-])c1ccc2c(c1)Sc1ccccc1N2` cannot be ordered by TGI: greater than 100 µM for the first, greater than 100 µM for the second.

These compounds were tested on SK-MEL-2 melanoma (assay: inhibition of tumour cell growth, NCI panel, 48 h).

`CCOC(=O)C1=C(Cl)c2cccnc2C1=O` and `CC(C)OC(=O)C1=C2c3ncccc3C(=O)N2[C@@H](Cl)[C@H](Cl)[C@H]1Cl` cannot be ordered by TGI: greater than 100 µM for the first, greater than 100 µM for the second.

`NC(=S)N/N=C1\CCCCc2ccccc21` was tested, and the TGI was greater than 10 µM.

The compounds below were run on HCT-15 colon (assay: inhibition of tumour cell growth, NCI panel, 48 h).

`CCOC(=O)C1=C(Cl)c2cccnc2C1=O` and `CC(C)OC(=O)C1=C2c3ncccc3C(=O)N2[C@@H](Cl)[C@H](Cl)[C@H]1Cl` cannot be ordered by TGI: greater than 100 µM for the first, greater than 100 µM for the second.

`NC(=S)N/N=C1\CCCCc2ccccc21` and `CC(C)(C)OC(=O)NCCc1ccc(N)cc1` cannot be ordered by TGI: greater than 10 µM for the first, greater than 100 µM for the second.

`O=[N+]([O-])c1ccc2c(c1)Sc1ccccc1N2` showed a TGI greater than 100 µM.

Each compound was assayed on MALME-3M melanoma (assay: inhibition of tumour cell growth, NCI panel, 48 h).

`CCOC(=O)C1=C(Cl)c2cccnc2C1=O` and `CC(C)OC(=O)C1=C2c3ncccc3C(=O)N2[C@@H](Cl)[C@H](Cl)[C@H]1Cl` cannot be ordered by TGI: greater than 100 µM for the first, greater than 100 µM for the second.

`NC(=S)N/N=C1\CCCCc2ccccc21` and `CC(C)(C)OC(=O)NCCc1ccc(N)cc1` cannot be ordered by TGI: greater than 10 µM for the first, greater than 100 µM for the second.

Compound `O=[N+]([O-])c1ccc2c(c1)Sc1ccccc1N2` has a TGI greater than 100 µM.

The compounds below were run on M14 melanoma (assay: inhibition of tumour cell growth, NCI panel, 48 h).

`CCOC(=O)C1=C(Cl)c2cccnc2C1=O` and `CC(C)OC(=O)C1=C2c3ncccc3C(=O)N2[C@@H](Cl)[C@H](Cl)[C@H]1Cl` cannot be ordered by TGI: greater than 100 µM for the first, greater than 100 µM for the second.

`NC(=S)N/N=C1\CCCCc2ccccc21` and `CC(C)(C)OC(=O)NCCc1ccc(N)cc1` cannot be ordered by TGI: greater than 10 µM for the first, greater than 100 µM for the second.

The compounds below were run on 786-0 renal (assay: inhibition of tumour cell growth, NCI panel, 48 h).

`CCOC(=O)C1=C(Cl)c2cccnc2C1=O` and `CC(C)OC(=O)C1=C2c3ncccc3C(=O)N2[C@@H](Cl)[C@H](Cl)[C@H]1Cl` cannot be ordered by TGI: greater than 100 µM for the first, greater than 100 µM for the second.

`NC(=S)N/N=C1\CCCCc2ccccc21` and `O=[N+]([O-])c1ccc2c(c1)Sc1ccccc1N2` cannot be ordered by TGI: greater than 10 µM for the first, greater than 100 µM for the second.

These compounds were tested on MDA-MB-231 breast (assay: inhibition of tumour cell growth, NCI panel, 48 h).

`CCOC(=O)C1=C(Cl)c2cccnc2C1=O` and `CC(C)OC(=O)C1=C2c3ncccc3C(=O)N2[C@@H](Cl)[C@H](Cl)[C@H]1Cl` cannot be ordered by TGI: greater than 100 µM for the first, greater than 100 µM for the second.

`O=[N+]([O-])c1ccc2c(c1)Sc1ccccc1N2` and `CC(C)(C)OC(=O)NCCc1ccc(N)cc1` cannot be ordered by TGI: greater than 100 µM for the first, greater than 100 µM for the second.

What follows are compounds tested on SNB-75 CNS (assay: inhibition of tumour cell growth, NCI panel, 48 h).

`CCOC(=O)C1=C(Cl)c2cccnc2C1=O` and `O=[N+]([O-])c1ccc2c(c1)Sc1ccccc1N2` are within 1.5-fold of each other in TGI: 88.3 µM for the first, 81.9 µM for the second.

The compounds below were run on T-47D breast (assay: inhibition of tumour cell growth, NCI panel, 48 h).

`NC(=S)N/N=C1\CCCCc2ccccc21` and `CC(C)(C)OC(=O)NCCc1ccc(N)cc1` cannot be ordered by TGI: greater than 10 µM for the first, greater than 100 µM for the second.

The compounds below were run on NCI-H522 lung (assay: inhibition of tumour cell growth, NCI panel, 48 h).

`CCOC(=O)C1=C(Cl)c2cccnc2C1=O` and `CC(C)OC(=O)C1=C2c3ncccc3C(=O)N2[C@@H](Cl)[C@H](Cl)[C@H]1Cl` cannot be ordered by TGI: greater than 100 µM for the first, greater than 100 µM for the second.

`NC(=S)N/N=C1\CCCCc2ccccc21` and `CC(C)(C)OC(=O)NCCc1ccc(N)cc1` cannot be ordered by TGI: greater than 10 µM for the first, greater than 100 µM for the second.

`O=[N+]([O-])c1ccc2c(c1)Sc1ccccc1N2` gave a TGI greater than 100 µM.

The compounds below were run on NCI-H460 lung (assay: inhibition of tumour cell growth, NCI panel, 48 h).

`CCOC(=O)C1=C(Cl)c2cccnc2C1=O` and `CC(C)OC(=O)C1=C2c3ncccc3C(=O)N2[C@@H](Cl)[C@H](Cl)[C@H]1Cl` cannot be ordered by TGI: greater than 100 µM for the first, greater than 100 µM for the second.

`NC(=S)N/N=C1\CCCCc2ccccc21` and `CC(C)(C)OC(=O)NCCc1ccc(N)cc1` cannot be ordered by TGI: greater than 10 µM for the first, greater than 100 µM for the second.

With `O=[N+]([O-])c1ccc2c(c1)Sc1ccccc1N2` the TGI was greater than 100 µM.

These compounds were tested on U251 CNS (assay: inhibition of tumour cell growth, NCI panel, 48 h).

`CCOC(=O)C1=C(Cl)c2cccnc2C1=O` and `CC(C)OC(=O)C1=C2c3ncccc3C(=O)N2[C@@H](Cl)[C@H](Cl)[C@H]1Cl` cannot be ordered by TGI: greater than 100 µM for the first, greater than 100 µM for the second.

`NC(=S)N/N=C1\CCCCc2ccccc21` and `CC(C)(C)OC(=O)NCCc1ccc(N)cc1` cannot be ordered by TGI: greater than 10 µM for the first, greater than 100 µM for the second.

Work on `O=[N+]([O-])c1ccc2c(c1)Sc1ccccc1N2` yielded a TGI greater than 100 µM.

The compounds below were run on SF-539 CNS (assay: inhibition of tumour cell growth, NCI panel, 48 h).

`CCOC(=O)C1=C(Cl)c2cccnc2C1=O` and `CC(C)OC(=O)C1=C2c3ncccc3C(=O)N2[C@@H](Cl)[C@H](Cl)[C@H]1Cl` cannot be ordered by TGI: greater than 100 µM for the first, greater than 100 µM for the second.

Work on `O=[N+]([O-])c1ccc2c(c1)Sc1ccccc1N2` yielded a TGI greater than 100 µM.

These compounds were tested on LOX IMVI melanoma (assay: inhibition of tumour cell growth, NCI panel, 48 h).

First: CCOC(=O)C1=C(Cl)c2cccnc2C1=O
Second: CC(C)OC(=O)C1=C2c3ncccc3C(=O)N2[C@@H](Cl)[C@H](Cl)[C@H]1Cl
The TGI of the first is lower: 72.7 µM for the first, greater than 100 µM for the second.

`O=[N+]([O-])c1ccc2c(c1)Sc1ccccc1N2` and `CC(C)(C)OC(=O)NCCc1ccc(N)cc1` cannot be ordered by TGI: greater than 100 µM for the first, greater than 100 µM for the second.
